From US7148227B2, “Fungicidal triazolopyrimidines, methods for producing the same, use thereof for combating harmful fungi and agents containing said substances” (BASF Aktiengesellschaft, priority 2002, dated 2006)

Structure (SMILES)	melting point
CSc1cc(F)c(-c2c(Cl)nc3ncnn3c2NCC(F)(F)F)cc1F [I-8]	161 °C
N#Cc1ccc(-c2c(Cl)nc3ncnn3c2NC2CCCC2)cc1 [I-3]	207 °C
